Experiment: Kinetic study: plasma kinetics of TMC278 after single IM or SC injection of a nanosuspension;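 note: healthy male beagle dogs injected in both biceps femoris muscles (IM) or both thoracal sides (SC), total volume 0.2 mL/kg, drug measured in plasma from blood samples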
Assay type: in vivo, male beagle dogs
Conditions: for AUC0-312 h / AUC0-696 h / AUC0-2208 h / Cmax / Tmax / plasma concentration of TMC278: single IM 5 mg eq./kg TMC278.HCl nanosuspension
Method: Six healthy male beagle dogs with body weights ranging from 8 to 16 kg at the start of the study, were used. Each dog was identified by an ear tattoo number. Two dogs were dosed intramuscularly (IM) in the left and right m. biceps femoris (treatment group A). […] Two dogs were dosed subcutaneously (SC) in the left and right thoracal region. The injection volume was 2×0.1 ml/kg in all treatment groups. A 20 G needle was used.
Blood samples of 3 ml were taken from the left jugular vein from all dogs on day 0 at 0 h (predose), 20 min, 1 h, 3 h, 8 h and 24 h post-dose and further on days 2, 3, 6, 8, 10, 13, 16, 20, 23, 27, 29, 36, 43, 50, 57, 64, 71, 78, 85 and 92 at approximately 8 AM. Blood samples were placed on EDTA, EDTA Vacuette Greiner, Cat. No. 454086, Greiner Labortechnik N.V.). Within 2 h of blood sampling, samples were centrifuged at room temperature at about 1900×g for 10 minutes to allow plasma separation. Plasma was immediately transferred into a second tube and stored in the freezer within 2 hours after the start of centrifugation.

In the case of `Cc1cc(/C=C/C#N)cc(C)c1Nc1ccnc(Nc2ccc(C#N)cc2)n1.Cl` [TMC278.HCl], the “blood plasma levels after injection (in words)” value (injectable formulation of nanonised substance, 5 mg/kg, male beagle dogs) is reported as “stable blood plasma levels during a prolonged period of time”, the AUC0-312 h (dog 19072) is reported as 15000 ng·h/mL and the AUC0-696 h (dog 19072) is reported as 20300 ng·h/mL. It also gave an AUC0-2208 h (dog 19072) of 27400 ng·h/mL, a Cmax (dog 19072) of 85.6 ng/mL and a Tmax (dog 19072) of 48 h. For the same compound, the “plasma concentration of TMC278” value (dog 19072, 0 h (d0, predose)) was under 1.00 ng/mL, the “plasma concentration of TMC278” value (dog 19072, 1 h) was 7.80 ng/mL and the “plasma concentration of TMC278” value (dog 19072, 3 h) was 14.7 ng/mL. For the same compound, the “plasma concentration of TMC278” value (dog 19072, 8 h) was 32.2 ng/mL, the “plasma concentration of TMC278” value (dog 19072, 24 h (d1)) was 50.1 ng/mL and the “plasma concentration of TMC278” value (dog 19072, 48 h (d2)) was 85.6 ng/mL. The “plasma concentration of TMC278” value (dog 19072, 72 h (d3)) was 47.5 ng/mL, the “plasma concentration of TMC278” value (dog 19072, 144 h (d6)) was 48.3 ng/mL and the “plasma concentration of TMC278” value (dog 19072, 192 h (d8)) was 46.8 ng/mL. The “plasma concentration of TMC278” value (dog 19072, 240 h (d10)) was 55.7 ng/mL, the “plasma concentration of TMC278” value (dog 19072, 312 h (d13)) was 27.0 ng/mL and the “plasma concentration of TMC278” value (dog 19072, 384 h (d16)) was 17.0 ng/mL. For the same compound, the “plasma concentration of TMC278” value (dog 19072, 480 h (d20)) was 13.7 ng/mL, the “plasma concentration of TMC278” value (dog 19072, 648 h (d27)) was 7.91 ng/mL and the “plasma concentration of TMC278” value (dog 19072, 696 h (d29)) was 10.2 ng/mL. The “plasma concentration of TMC278” value (dog 19072, 864 h (d36)) was 6.18 ng/mL, the “plasma concentration of TMC278” value (dog 19072, 1032 h (d43)) was 6.32 ng/mL and the “plasma concentration of TMC278” value (dog 19072, 1200 h (d50)) was 4.56 ng/mL. For the same compound, the “plasma concentration of TMC278” value (dog 19072, 1368 h (d57)) was 4.73 ng/mL, the “plasma concentration of TMC278” value (dog 19072, 1536 h (d64)) was 4.47 ng/mL and the “plasma concentration of TMC278” value (dog 19072, 1704 h (d71)) was 3.38 ng/mL. The “plasma concentration of TMC278” value (dog 19072, 1872 h (d78)) was 3.12 ng/mL, the “plasma concentration of TMC278” value (dog 19072, 2040 h (d85)) was 3.20 ng/mL and the “plasma concentration of TMC278” value (dog 19072, 2208 h (d92)) was 2.96 ng/mL. It also gave an AUC0-312 h (dog 19080) of 20900 ng·h/mL, an AUC0-696 h (dog 19080) of 30500 ng·h/mL and an AUC0-2208 h (dog 19080) of 39900 ng·h/mL. The Cmax (dog 19080) was 105 ng/mL, the Tmax (dog 19080) was 48 h and the “plasma concentration of TMC278” value (dog 19080, 0 h (d0, predose)) was under 1.00 ng/mL. For the same compound, the “plasma concentration of TMC278” value (dog 19080, 1 h) was 7.19 ng/mL, the “plasma concentration of TMC278” value (dog 19080, 3 h) was 16.3 ng/mL and the “plasma concentration of TMC278” value (dog 19080, 8 h) was 27.1 ng/mL. For the same compound, the “plasma concentration of TMC278” value (dog 19080, 24 h (d1)) was 69.8 ng/mL, the “plasma concentration of TMC278” value (dog 19080, 48 h (d2)) was 105 ng/mL and the “plasma concentration of TMC278” value (dog 19080, 72 h (d3)) was 69.5 ng/mL. The “plasma concentration of TMC278” value (dog 19080, 144 h (d6)) was 62.3 ng/mL, the “plasma concentration of TMC278” value (dog 19080, 192 h (d8)) was 65.8 ng/mL and the “plasma concentration of TMC278” value (dog 19080, 240 h (d10)) was 82.2 ng/mL. The “plasma concentration of TMC278” value (dog 19080, 312 h (d13)) was 45.8 ng/mL, the “plasma concentration of TMC278” value (dog 19080, 384 h (d16)) was 31.9 ng/mL and the “plasma concentration of TMC278” value (dog 19080, 480 h (d20)) was 25.5 ng/mL. The “plasma concentration of TMC278” value (dog 19080, 648 h (d27)) was 14.4 ng/mL, the “plasma concentration of TMC278” value (dog 19080, 696 h (d29)) was 18.8 ng/mL and the “plasma concentration of TMC278” value (dog 19080, 864 h (d36)) was 11.4 ng/mL. For the same compound, the “plasma concentration of TMC278” value (dog 19080, 1032 h (d43)) was 8.18 ng/mL, the “plasma concentration of TMC278” value (dog 19080, 1200 h (d50)) was 5.68 ng/mL and the “plasma concentration of TMC278” value (dog 19080, 1368 h (d57)) was 5.08 ng/mL. The “plasma concentration of TMC278” value (dog 19080, 1536 h (d64)) was 4.43 ng/mL, the “plasma concentration of TMC278” value (dog 19080, 1704 h (d71)) was 3.90 ng/mL and the “plasma concentration of TMC278” value (dog 19080, 1872 h (d78)) was 3.20 ng/mL. The “plasma concentration of TMC278” value (dog 19080, 2040 h (d85)) was 4.00 ng/mL, the “plasma concentration of TMC278” value (dog 19080, 2208 h (d92)) was 2.81 ng/mL and the AUC0-312 h (mean of 2 dogs) was 18000 ng·h/mL. For the same compound, the AUC0-696 h (mean of 2 dogs) was 25400 ng·h/mL, the AUC0-2208 h (mean of 2 dogs) was 33600 ng·h/mL and the Cmax (mean of 2 dogs) was 95.3 ng/mL. For the same compound, the Tmax (mean of 2 dogs) was 48 h, the “plasma concentration of TMC278” value (mean of 2 dogs, 0 h (d0, predose)) was under 1.00 ng/mL and the “plasma concentration of TMC278” value (mean of 2 dogs, 1 h) was 7.50 ng/mL. The “plasma concentration of TMC278” value (mean of 2 dogs, 3 h) was 15.5 ng/mL, the “plasma concentration of TMC278” value (mean of 2 dogs, 8 h) was 29.7 ng/mL and the “plasma concentration of TMC278” value (mean of 2 dogs, 24 h (d1)) was 60.0 ng/mL. For the same compound, the “plasma concentration of TMC278” value (mean of 2 dogs, 48 h (d2)) was 95.3 ng/mL, the “plasma concentration of TMC278” value (mean of 2 dogs, 72 h (d3)) was 58.5 ng/mL and the “plasma concentration of TMC278” value (mean of 2 dogs, 144 h (d6)) was 55.3 ng/mL. For the same compound, the “plasma concentration of TMC278” value (mean of 2 dogs, 192 h (d8)) was 56.3 ng/mL, the “plasma concentration of TMC278” value (mean of 2 dogs, 240 h (d10)) was 69.0 ng/mL and the “plasma concentration of TMC278” value (mean of 2 dogs, 312 h (d13)) was 36.4 ng/mL. For the same compound, the “plasma concentration of TMC278” value (mean of 2 dogs, 384 h (d16)) was 24.5 ng/mL, the “plasma concentration of TMC278” value (mean of 2 dogs, 480 h (d20)) was 19.6 ng/mL and the “plasma concentration of TMC278” value (mean of 2 dogs, 648 h (d27)) was 11.2 ng/mL. The “plasma concentration of TMC278” value (mean of 2 dogs, 696 h (d29)) was 14.5 ng/mL, the “plasma concentration of TMC278” value (mean of 2 dogs, 864 h (d36)) was 8.79 ng/mL and the “plasma concentration of TMC278” value (mean of 2 dogs, 1032 h (d43)) was 7.25 ng/mL. For the same compound, the “plasma concentration of TMC278” value (mean of 2 dogs, 1200 h (d50)) was 5.12 ng/mL, the “plasma concentration of TMC278” value (mean of 2 dogs, 1368 h (d57)) was 4.91 ng/mL and the “plasma concentration of TMC278” value (mean of 2 dogs, 1536 h (d64)) was 4.45 ng/mL. For the same compound, the “plasma concentration of TMC278” value (mean of 2 dogs, 1704 h (d71)) was 3.64 ng/mL, the “plasma concentration of TMC278” value (mean of 2 dogs, 1872 h (d78)) was 3.16 ng/mL and the “plasma concentration of TMC278” value (mean of 2 dogs, 2040 h (d85)) was 3.60 ng/mL. For the same compound, the “plasma concentration of TMC278” value (mean of 2 dogs, 2208 h (d92)) was 2.89 ng/mL.

Reference: patent US11389447B2 (Janssen Sciences Ireland Unlimited Company, priority 2006, dated 2022)
